Assay [1] deals with HCV genotype 1b (Con1) replicon in HUH-7 cells. As to the kind of experiment: HCV replicon luciferase reporter assay, genotype 1b. It counts as cell-based. The note with it: Hepatitis C virus, 72 h, 3 days incubation, read-out: LE_1b (EC50, range). An excerpt: An HCV replicon whole cell system was established as described by Lohmann V, Korner F, Koch J, Herian U, Theilmann L, Bartenschlager R., Science 285(5424):110-3 (1999) and modified to introduce a luciferase reporter, as first described by Krieger et al (Krieger N, Lohmann V, and Bartenschlager R, J. Virol. 75(10):4614-4624 (2001)). CDNA encoding a humanized form of the Renilla luciferase gene and a linker sequence fused directly to the 3′-end of the luciferase gene were introduced into the replicon construct using an Asc1 restriction site located in core, directly upstream of the neomycin marker gene. The adaptive mutation at position 1179 (serine to isoleucine) was also introduced (Blight K J, Kolykhalov, A A, Rice, C M, Science 290(5498):1972-1974). A stable cell line constitutively expressing this HCV replicon construct was generated by first linearizing plasmid DNAs with ScaI. RNA transcripts were synthesized in vitro using the T7 MegaScript transcription kit (Ambion, Austin, Tex.) according to manufacturer's directions. In vitro transcripts of the cDNA were transfected into the human hepatoma cell line, HUH-7. […] Resulting cell lines were characterized for positive and negative strand RNA production and protein production over time. […]
(§1) HCV replicon luciferase assays were developed to monitor the inhibitory effects of compounds described in the disclosure on HCV genotypes 1a and 1b viral replication. HUH-7 cells, constitutively expressing the HCV replicon, were grown in Dulbecco's Modified Eagle Media (DMEM) (Gibco-BRL) containing 10% Fetal calf serum (FCS) (Sigma) and 1 mg/mL G418 (Gibco-BRL). Compounds were serially diluted 3 folds in DMSO for a twenty-point titration and subsequently transferred to sterile 384-well tissue-culture treated plates (Corning cat #3571). The plates were then seeded with 50 μL of cells at a density of 3.0×10^3 cells/well in DMEM containing 4% FCS (final DMSO concentration at 0.5%). After 3 days incubation at 37° C., cells were analyzed for Renilla Luciferase activity using the EnduRen as substrate (Promega cat #E6485). The EnduRen substrate was diluted in DMEM and then added to the plates to a final concentration of 7.5 μM. The plates were incubated for 2 hrs at 37° C. and then read immediately for 30 seconds with Viewlux Imager (PerkinElmer) using a luminescence program. To assess cytotoxicity of compounds, CC50 values were generated by multiplexing the EnduRen-containing plates with Cell Titer-Blue (Promega, cat # G8082). Cell-Titer Blue (3 μL) was added to each well and incubated for 8 hrs at 37° C. The fluorescence signal from each well was read, with an excitation wavelength at 525/10 nm and an emission wavelength of 598/10 nm, using the Viewlux Imager.
(§2) The EC50 values for compounds were calculated by using a four-parameter logistic equation: y=A+((B−A)/(1+((C/x)^D))), where A and B denotes minimal and maximal % inhibition, respectively, C is the EC50, D is the hill slope and x represents compound concentration.

Assay [2] concerns HCV genotype 1a (H77 strain) replicon in HUH-7 cells. As to the kind of experiment: HCV replicon luciferase reporter assay, genotype 1a. Type of assay: cell-based. The note with it: Hepatitis C virus, Huh-7, 72 h, 3 days incubation, read-out: LE_1a (EC50, range).
Source text: An HCV replicon whole cell system was established as described by Lohmann V, Korner F, Koch J, Herian U, Theilmann L, Bartenschlager R., Science 285(5424):110-3 (1999) and modified to introduce a luciferase reporter, as first described by Krieger et al (Krieger N, Lohmann V, and Bartenschlager R, J. Virol. 75(10):4614-4624 (2001)). CDNA encoding a humanized form of the Renilla luciferase gene and a linker sequence fused directly to the 3′-end of the luciferase gene were introduced into the replicon construct using an Asc1 restriction site located in core, directly upstream of the neomycin marker gene. The adaptive mutation at position 1179 (serine to isoleucine) was also introduced (Blight K J, Kolykhalov, A A, Rice, C M, Science 290(5498):1972-1974). A stable cell line constitutively expressing this HCV replicon construct was generated by first linearizing plasmid DNAs with ScaI. RNA transcripts were synthesized in vitro using the T7 MegaScript transcription kit (Ambion, Austin, Tex.) according to manufacturer's directions. In vitro transcripts of the cDNA were transfected into the human hepatoma cell line, HUH-7. […] Resulting cell lines were characterized for positive and negative strand RNA production and protein production over time.
A stable HCV replicon luciferase reporter cell line representing the genotype 1a H77 strain (Yanagi M, Purcell R H, Emerson S U, et al. Transcripts from a single full-length cDNA clone of hepatitis C virus are infectious when directly transfected into the liver of a chimpanzee. Proc Natl Acad Sci USA 1997; 94(16):8738-8743) was generated as described previously for the genotype 1b (Con1) replicon luciferase cell line. The replicon construct was modified by introducing mutations were introduced into the genes encoding the NS3 helicase domain (proline replaced by leucine at position 1496) and NS5A (serine to isoleucine at position 2204) to improve replication in cell culture.
as §1, §2

The mark [3] stands for this setting: HCV genotype 1b replicon luciferase, class symbols.
Where [4] appears, read: HCV genotype 1a replicon luciferase, class symbols.
Setting [5] is: HCV genotype 1b replicon luciferase, range class.
The mark [6] stands for this setting: HCV genotype 1a replicon luciferase, range class.

Like-named read-outs stand apart in the source and are kept apart here.

With `CC[C@@H]1C[C@H](C)CC/C=C\[C@@H]2C[C@@]2(C(=O)NS(=O)(=O)C2CC2)NC(=O)[C@@H]2C[C@@H](Oc3ncc(OC)c4ccccc34)CN2C(=O)[C@H]1NC(=O)OC(C)(C)C(F)(F)F` [Compound 4008, 1,1,1-trifluoro-2-methylpropan-2-yl (2R,6S,7R,9R,13aS,14aR,16aS,Z)-14a-(cyclopropylsulfonylcarbamoyl)-7-ethyl-2-(4-methoxyisoquinolin-1-yloxy)-9-methyl-5,16-dioxo-1,2,3,5,6,7,8,9,10,11,13a,14,14a,15,16,16a-hexadecahydrocyclopropa[e]pyrrolo[1,2-a][1,4]diazacyclopentadecin-6-ylcarbamate], the half-maximal effective concentration (EC50) in assay [1] (setting [3]) and in assay [2] (setting [4]) was below 5.46 nM in each case.
With `COc1ccc2c(O[C@@H]3C[C@H]4C(=O)N[C@]5(C(=O)NS(=O)(=O)C6CC6)C[C@H]5/C=C\CC[C@H](C)C[C@@H](C)[C@H](NC(=O)O[C@@H]5C[C@@H]6C[C@@H]6C5)C(=O)N4C3)nc(-c3ccc(OC(C)C)nc3)cc2c1` [Compound 5218, (1R,3r,5S)-bicyclo[3.1.0]hexan-3-yl ((2R,6S,7R,9S,13aS,14aR,16aS,Z)-14a-((cyclopropylsulfonyl)carbamoyl)-2-((3-(6-isopropoxypyridin-3-yl)-6-methoxyisoquinolin-1-yl)oxy)-7,9-dimethyl-5,16-dioxo-1,2,3,5,6,7,8,9,10,11,13a,14,14a,15,16,16a-hexadecahydrocyclopropa[e]pyrrolo[1,2-a][1,4]diazacyclopentadecin-6-yl)carbamate], the EC50 in assay [1] (setting [5]) and in assay [2] (setting [6]) was below 5.46 nM each time.
Turning to `[2H]C([2H])([2H])C(C)(OC(=O)N[C@@H]1C(=O)N2C[C@H](Oc3nccc4cc(OC)ccc34)C[C@H]2C(=O)N[C@]2(C(=O)NS(=O)(=O)C3(C)CC3)C[C@H]2/C=C\CC[C@H](C)C[C@H]1C)C([2H])([2H])[2H]` [Compound 5176, 1,1,1,3,3,3-hexadeutero-2-methylpropan-2-yl ((2R,6S,7R,9S,13aS,14aR,16aS,Z)-2-((6-methoxyisoquinolin-1-yl)oxy)-7,9-dimethyl-14a-(((1-methylcyclopropyl)sulfonyl)carbamoyl)-5,16-dioxo-1,2,3,5,6,7,8,9,10,11,13a,14,14a,15,16,16a-hexadecahydrocyclopropa[e]pyrrolo[1,2-a][1,4]diazacyclopentadecin-6-yl)carbamate], the EC50 is below 5.46 nM in assay [1] (setting [5]) and 4.82 to 103 nM in assay [2] (setting [6]).
For the compound `CCOc1cnc(O[C@@H]2C[C@H]3C(=O)N[C@]4(C(=O)NS(=O)(=O)C5(C)CC5)C[C@H]4/C=C\CC[C@H](C)C[C@@H](C)[C@H](NC(=O)OC(C)(C)C(C)(F)F)C(=O)N3C2)c2ccccc12` [Compound 5112, 3,3-difluoro-2-methylbutan-2-yl ((2R,6S,7R,9S,13aS,14aR,16aS,Z)-2-((4-ethoxyisoquinolin-1-yl)oxy)-7,9-dimethyl-14a-(((1-methylcyclopropyl)sulfonyl)carbamoyl)-5,16-dioxo-1,2,3,5,6,7,8,9,10,11,13a,14,14a,15,16,16a-hexadecahydrocyclopropa[e]pyrrolo[1,2-a][1,4]diazacyclopentadecin-6-yl)carbamate], the concentration giving a half-maximal response (EC50) in assay [1] (setting [3]) and in assay [2] (setting [4]) was 4.82 to 103 nM in each case.
For `COc1cnc(O[C@@H]2C[C@H]3C(=O)N[C@]4(C(=O)NS(=O)(=O)C5CC5)C[C@H]4/C=C\CC[C@@H](C)C[C@@H](C)[C@H](NC(=O)OC(C)(C)C(F)(F)F)C(=O)N3C2)c2ccccc12` [Compound 3, 1,1,1-trifluoro-2-methylpropan-2-yl ((2R,6S,7R,9R,13aS,14aR,16aS,Z)-14a-((cyclopropylsulfonyl)carbamoyl)-2-((4-methoxyisoquinolin-1-yl)oxy)-7,9-dimethyl-5,16-dioxo-1,2,3,5,6,7,8,9,10,11,13a,14,14a,15,16,16a-hexadecahydrocyclopropa[e]pyrrolo[1,2-a][1,4]diazacyclopentadecin-6-yl)carbamate], the half-maximal effective concentration (EC50) in assay [1] (HCV genotype 1b replicon luciferase reporter, range class) is below 5.46 nM; in assay [2] (HCV genotype 1a replicon luciferase reporter, range class), below 5.46 nM.
`CC[C@@H]1C[C@H](C)CC/C=C\[C@@H]2C[C@@]2(C(=O)NS(=O)(=O)C2(CF)CC2)NC(=O)[C@@H]2C[C@@H](Oc3nccc4c5c(ccc34)N(C)CCO5)CN2C(=O)[C@H]1NC(=O)OC(C)(C)C(C)(F)F` [Compound 5324, 3,3-difluoro-2-methylbutan-2-yl ((2R,6S,7R,9R,13aS,14aR,16aS,Z)-7-ethyl-14a-(((1-(fluoromethyl)cyclopropyl)sulfonyl)carbamoyl)-9-methyl-2-((4-methyl-3,4-dihydro-2H-[1,4]oxazino[2,3-f]isoquinolin-7-yl)oxy)-5,16-dioxo-1,2,3,5,6,7,8,9,10,11,13a,14,14a,15,16,16a-hexadecahydrocyclopropa[e]pyrrolo[1,2-a][1,4]diazacyclopentadecin-6-yl)carbamate]: the 50% effective concentration (EC50) in assay [1] (setting [5]) and in assay [2] (setting [6]) was below 5.46 nM in each case.
For the compound `C[C@@H]1CC/C=C\[C@@H]2C[C@@]2(C(=O)NS(=O)(=O)C2(C)CC2)NC(=O)[C@@H]2C[C@@H](Oc3nccc4c(N5CCOCC5)cccc34)CN2C(=O)[C@@H](NC(=O)OC(C)(C)C(C)(F)F)[C@H](C)C1` [Compound 5126, 3,3-difluoro-2-methylbutan-2-yl ((2R,6S,7R,9R,13aS,14aR,16aS,Z)-7,9-dimethyl-14a-(((1-methylcyclopropyl)sulfonyl)carbamoyl)-2-((5-morpholinoisoquinolin-1-yl)oxy)-5,16-dioxo-1,2,3,5,6,7,8,9,10,11,13a,14,14a,15,16,16a-hexadecahydrocyclopropa[e]pyrrolo[1,2-a][1,4]diazacyclopentadecin-6-yl)carbamate], the concentration giving a half-maximal response (EC50) in assay [1] (setting [3]) and in assay [2] (setting [4]) was below 5.46 nM throughout.
For `CCOc1ccc2c(O[C@@H]3C[C@H]4C(=O)N[C@]5(C(=O)NS(=O)(=O)C6CC6)C[C@H]5/C=C\CC[C@H](C)C[C@@H](C)[C@H](NC(=O)O[C@@H]5C[C@@H]6C[C@@H]6C5)C(=O)N4C3)nccc2c1` [Compound 5131, (1R,3r,5S)-bicyclo[3.1.0]hexan-3-yl ((2R,6S,7R,9S,13aS,14aR,16aS,Z)-14a-((cyclopropylsulfonyl)carbamoyl)-2-((6-ethoxyisoquinolin-1-yl)oxy)-7,9-dimethyl-5,16-dioxo-1,2,3,5,6,7,8,9,10,11,13a,14,14a,15,16,16a-hexadecahydrocyclopropa[e]pyrrolo[1,2-a][1,4]diazacyclopentadecin-6-yl)carbamate], the concentration giving a half-maximal response (EC50) in assay [1] (setting [3]) and in assay [2] (setting [4]) was below 5.46 nM in each case.

The EC50 is the concentration needed to bring the measured effect to its halfway point.
